Data set [1] can be described thus: Half life in mouse liver microsomes at 1 uM incubated for 2 to 60 mins in presence of NADPH by LC-MS/MS analysis. The settings on record: time 2-60 min. In kind it is ADME, Microsome. (Microsomes from liver hold many membrane-bound enzymes, among them those of drug oxidation.)
The nature of data set [2]: Intrinsic clearance in dog liver microsomes at 1 uM incubated for 2 to 60 mins in presence of NADPH by LC-MS/MS analysis. Type of data set: ADME, Canis lupus familiaris, Microsome. Conditions: time 2-60 min, read-out: CLH.
Data set [3] can be described thus: Toxicity in Balb/c mouse xenografted with human RPMI-8226 cells assessed as body weight loss at 10 mg/kg,po administrated biweekly for 21 days. In kind it is organism-based. The settings on record: in vivo, 504 h, time 21 day.
A short description of data set [4]: Stability of the compound in stimulated […] fluid at pH 1.2 measured after 12 hrs. Type of data set: ADME. The settings on record: simulated gi fluid, pH 1.2, 12 h.
A short description of data set [5]: Half life in Sprague-Dawley rat at 1.2 mg/kg,IG measured upto 24 hrs by LC-MS/MS analysis. Type of data set: ADME, organism-based. Conditions: in vivo, po.
Data set [6] in a line: Stability of the compound in stimulated […] fluid at pH 1.2 measured after 8 hrs. Type of data set: ADME. The settings on record: simulated gi fluid, pH 1.2, 8 h.
The nature of data set [7]: Half life in rat liver microsomes at 1 uM incubated for 2 to 60 mins in presence of NADPH by LC-MS/MS analysis. In kind it is ADME, Microsome. The settings on record: time 2-60 min.
Data set [8] is described as follows: Intrinsic clearance in rat liver microsomes at 1 uM incubated for 2 to 60 mins in presence of NADPH by LC-MS/MS analysis. Conditions: time 2-60 min, read-out: CLH. Type of data set: ADME, Microsome.
Data set [9] can be described thus: Half life in dog liver microsomes at 1 uM incubated for 2 to 60 mins in presence of NADPH by LC-MS/MS analysis. In kind it is ADME, Canis lupus familiaris, Microsome. Conditions: time 2-60 min.
Data set [10] is described as follows: Stability of the compound in stimulated […] fluid at pH 6.8 measured after 1 min. Type of data set: ADME. The settings on record: simulated intestinal fluid, read-out: Stability.
The target of data set [11] is Voltage-gated inwardly rectifying potassium channel KCNH2 (Homo sapiens, UniProt Q12809). Kind of data set: Inhibition of human ERG expressed in HEK293 cells. Type of data set: toxicity, cell-based.
Data set [12] can be described thus: Tmax in Sprague-Dawley rat at 1.2 mg/kg,IG measured upto 24 hrs by LC-MS/MS analysis. In kind it is ADME, organism-based. The settings on record: in vivo, po.
Data set [13] can be described thus: Toxicity in Balb/c mouse xenografted with human RPMI-8226 cells assessed as body weight loss at 6 mg/kg,po administrated biweekly for 21 days. Type of data set: organism-based. Conditions: in vivo, 504 h, time 21 day. In general terms: A xenograft is tissue or cells of one species grown in another, often human tumour cells in immunodeficient mice.
Data set [14] can be described thus: Stability of the compound in stimulated […] fluid at pH 1.2 measured after 2 hrs. In kind it is ADME. The settings on record: simulated gi fluid, pH 1.2, 2 h.
Data set [15] can be described thus: Intrinsic clearance in monkey liver microsomes at 1 uM incubated for 2 to 60 mins in presence of NADPH by LC-MS/MS analysis. In kind it is ADME, Macaca mulatta, Microsome. Conditions: rhesus monkey, time 2-60 min, read-out: CLH.
A short description of data set [16]: Stability of the compound in stimulated […] fluid at pH 6.8 measured after 12 hrs. Conditions: simulated intestinal fluid, read-out: Stability. In kind it is ADME.
Data set [17] has as its system RPMI-8226. Kind of data set: Antitumor activity against human RPMI-8226 cells xenografted in Balb/c mouse assessed as tumor growth inhibition at po administration biweekly for 21 days. Type of data set: functional, organism-based. Conditions: time 21.0 day.
A short description of data set [18]: AUC (0-t) in Sprague-Dawley rat at 0.4 mg/kg,iv measured upto 24 hrs by LC-MS/MS analysis. Type of data set: ADME, organism-based. Further details: time < 24 hrs, dose 0.4 mg/kg, route iv. The settings on record: in vivo.
Data set [19] is described as follows: Stability of the compound in stimulated […] fluid at pH 1.2 measured after 1 min. In kind it is ADME. The settings on record: simulated gi fluid, pH 1.2, 1 min.
A short description of data set [20]: Intrinsic clearance in human liver microsomes at 1 uM incubated for 2 to 60 mins in presence of NADPH by LC-MS/MS analysis. In kind it is ADME, Microsome. The settings on record: time 2-60 min, read-out: CLH.
Data set [21] in a line: Stability of the compound in stimulated […] fluid at pH 1.2 measured after 4 hrs. Type of data set: ADME. The settings on record: simulated gi fluid, pH 1.2, 4 h.
Data set [22] in a line: Half life in human liver microsomes at 1 uM incubated for 2 to 60 mins in presence of NADPH by LC-MS/MS analysis. In kind it is ADME, Microsome. The settings on record: time 2-60 min.
Data set [23] can be described thus: Intrinsic clearance in mouse liver microsomes at 1 uM incubated for 2 to 60 mins in presence of NADPH by LC-MS/MS analysis. Type of data set: ADME, Microsome. Conditions: time 2-60 min, read-out: CLH.
Data set [24] in a line: Oral bioavailability in Sprague-Dawley rat at 1.2 mg/kg measured upto 24 hrs by LC-MS/MS analysis. In kind it is ADME, organism-based. Conditions: in vivo.
Data set [25] can be described thus: Cmax in Sprague-Dawley rat at 1.2 mg/kg,IG measured upto 24 hrs by LC-MS/MS analysis. In kind it is ADME, organism-based. Further details: time < 24 hrs, dose 1.2 mg/kg, route ig. Conditions: in vivo, po.
Data set [26] in a line: Stability of the compound in stimulated […] fluid at pH 6.8 measured after 4 hrs. In kind it is ADME. Conditions: simulated intestinal fluid, read-out: Stability.
Data set [27] can be described thus: Half life in Sprague-Dawley rat at 0.4 mg/kg,iv measured upto 24 hrs by LC-MS/MS analysis. In kind it is ADME, organism-based. The settings on record: in vivo.
Data set [28] is described as follows: Half life in monkey liver microsomes at 1 uM incubated for 2 to 60 mins in presence of NADPH by LC-MS/MS analysis. Type of data set: ADME, Macaca mulatta, Microsome. The settings on record: rhesus monkey, time 2-60 min.
A short description of data set [29]: Stability of the compound in stimulated […] fluid at pH 6.8 measured after 8 hrs. Type of data set: ADME. Conditions: simulated intestinal fluid, read-out: Stability.
Data set [30] is described as follows: AUC(0-t) in Sprague-Dawley rat at 1.2 mg/kg,IG measured upto 24 hrs by LC-MS/MS analysis. In kind it is ADME, organism-based. Further details: dose 1.2 mg/kg, time < 24 hrs, route ig. The settings on record: in vivo, po.
The next data set addresses 20S proteasome. Kind of data set: Inhibition of human 20S proteasome chymotrypsin-like activity using Suc-Leu-Leu-Val-Tyr-AMC as fluorogenic peptide pre-incubated for 10 mins with compound followed by substrate addition for 60 mins by spectrofluorimetric analysis. Type of data set: protein-complex assay.
Data set [31] concerns RPMI-8226. Kind of data set: Cytotoxicity against human RPMI-8226 cells assessed as inhibition of cell proliferation incubated for 72 hrs by Cell Titer-Glo luminescence assay. Conditions: RPMI-8226, 72 h. Type of data set: functional, cell-based. For orientation: ATP-based viability assays read luminescence as a measure of living cells.
A short description of data set [32]: Stability of the compound in stimulated […] fluid at pH 6.8 measured after 2 hrs. Conditions: simulated intestinal fluid, read-out: Stability. Type of data set: ADME.

The structures appear in SMILES notation.

Data on 2 compounds can be found in ChEMBL document CHEMBL5385891, “Design and discovery of novel dipeptide boronic acid ester proteasome inhibitors, an oral slowly-released prodrug for the treatment of multiple myeloma” (Eur J Med Chem, 2023).

Chain of Voltage-gated inwardly rectifying potassium channel KCNH2 (Q12809 whole entry): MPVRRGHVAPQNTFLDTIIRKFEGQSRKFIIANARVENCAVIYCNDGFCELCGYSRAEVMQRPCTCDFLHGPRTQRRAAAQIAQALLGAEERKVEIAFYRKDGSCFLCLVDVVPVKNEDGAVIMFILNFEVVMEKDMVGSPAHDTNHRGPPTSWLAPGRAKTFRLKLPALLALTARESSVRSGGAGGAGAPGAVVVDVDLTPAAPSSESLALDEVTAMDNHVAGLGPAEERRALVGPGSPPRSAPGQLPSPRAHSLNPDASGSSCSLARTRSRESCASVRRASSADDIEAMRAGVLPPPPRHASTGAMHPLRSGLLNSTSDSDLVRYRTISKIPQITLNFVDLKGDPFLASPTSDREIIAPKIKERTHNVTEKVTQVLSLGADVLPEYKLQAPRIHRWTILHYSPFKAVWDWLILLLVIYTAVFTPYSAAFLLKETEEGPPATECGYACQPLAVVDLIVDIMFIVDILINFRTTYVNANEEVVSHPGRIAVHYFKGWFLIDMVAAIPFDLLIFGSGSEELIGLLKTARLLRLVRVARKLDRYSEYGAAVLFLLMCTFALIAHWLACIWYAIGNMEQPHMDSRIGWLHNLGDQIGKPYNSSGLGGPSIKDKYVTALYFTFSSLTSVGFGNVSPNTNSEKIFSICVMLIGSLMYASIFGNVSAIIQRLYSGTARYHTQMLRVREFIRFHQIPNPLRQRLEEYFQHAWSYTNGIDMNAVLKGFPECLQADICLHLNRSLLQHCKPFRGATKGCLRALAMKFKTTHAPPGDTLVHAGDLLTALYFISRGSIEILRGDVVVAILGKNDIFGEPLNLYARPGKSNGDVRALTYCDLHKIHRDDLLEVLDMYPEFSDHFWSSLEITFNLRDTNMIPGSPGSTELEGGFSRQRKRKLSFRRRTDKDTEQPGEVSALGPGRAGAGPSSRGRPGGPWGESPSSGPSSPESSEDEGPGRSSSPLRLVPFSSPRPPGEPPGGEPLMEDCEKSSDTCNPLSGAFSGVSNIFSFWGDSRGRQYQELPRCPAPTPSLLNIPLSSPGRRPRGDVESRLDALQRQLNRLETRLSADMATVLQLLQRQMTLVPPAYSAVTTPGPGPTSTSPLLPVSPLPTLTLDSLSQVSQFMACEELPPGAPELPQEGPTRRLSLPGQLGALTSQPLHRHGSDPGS

On to `CC(C)C[C@H](NC(=O)C(CC1CC1)NC(=O)c1cc(C(F)(F)F)ccc1C(F)(F)F)B1OC2C3OC(CC3C(=O)O)C2(C)O1` (some centres not stated), for which the half-life at 1 µM was determined as 28.3 min in data set [1]; 25.2 min in data set [7]; 72.9 min in data set [9]; 28.3 min in data set [22]; 8.8 min in [28]. Further, the microsomal CLint at 1 µM in [2] is 19 µL/min/mg; in data set [8], 55 µL/min/mg; in data set [15] it was 158 µL/min/mg; in data set [20], 49 µL/min/mg; in data set [23], 49 µL/min/mg. Moreover, the Activity entry was “Non-Toxic” in [3], “Non-Toxic” in [13] and “Dose-Dependent Effect” in the data set on RPMI-8226 [17]. Further, the Stability is on record as 59.68% in data set [4]; 58.68% in data set [6]; 59.73% in [14]; 6.44% in [19]; 58.25% in data set [21]. Moreover, the half-life in data set [5] was 1800 min; in [27], 1450 min. Also, the remaining at 1 min in [10] is 2.27%. In addition, the IC50 is more than 30000 nM in data set [11], 2.2 nM at 20S proteasome and 5.6 nM in the data set with RPMI-8226 [31]. Moreover, the Tmax in data set [12] worked out at 49.8 min. Besides, the remaining at 12 h in [16] is 6.77%. In addition, the exposure AUC(0-t) at 24 h in data set [18] amounted to 2270 ng·h/mL; in data set [30] it was 2680 ng·h/mL. For the same compound, the bioavailability in data set [24] came out at 34%. The same compound gave a Cmax in data set [25] of 174 ng/mL. Further, the remaining at 4 h in data set [26] was 3.98%. The remaining at 8 h in data set [29] was 5.24%. Besides, in data set [32], the remaining at 2 h was 3.55%.

With `CC(C)C[C@H](NC(=O)CNC(=O)c1cc(Cl)ccc1Cl)B(O)O` [IXAZOMIB], the Activity result in data set [3] is “Non-Toxic”; in [13], “Non-Toxic”; in the data set on RPMI-8226 [17] it was “Dose-Dependent Effect”. In addition, the Stability in data set [4], in data set [6], in data set [14], in [19] and in data set [21] was 100% throughout. The remaining at 1 min in [10] was 12.6%. Further, the remaining at 12 h in data set [16] was 100%. Moreover, the remaining at 4 h in data set [26] was 100%. For the same compound, the remaining at 8 h in [29] was 100%. For the same compound, the IC50 with RPMI-8226 [31] is 7.4 nM. The remaining at 2 h in data set [32] was 100%.

As usually defined, the half-life is the time in which the quantity being followed falls by half. Usually IC50 stands for the concentration at which inhibition is half-maximal. The Tmax is the time at which the peak concentration occurs. The AUC(0-t) is exposure summed from dosing to a finite time, without extrapolation to infinity. The term bioavailability denotes dose-corrected exposure relative to a reference, in per cent. The term Cmax denotes the highest concentration seen after dosing.
